# Test results: patent publication US6420313B1, “Thienylalkylamino-1,3,5-triazines and the use thereof as herbicides” (Bayer Aktiengesellschaft, priority 1998, dated 2002)
# Experiments:
# Assay type in all cases: in vivo
# Viola [1] = test: Pre-emergence test/greenhouse, Viola; settings: after three weeks
# Experimental: (§1) Solvent: 5 parts by weight of acetone
# (§2) Emulsifier: 1 part by weight of alkylaryl polyglycol ether
# (§3) To produce a suitable preparation of active compound, 1 part by weight of active compound is mixed with the stated amount of solvent, the stated amount of emulsifier is added and the concentrate is diluted with water to the desired concentration.
# (§4) Seeds of the test plants are sown in normal soil. After about 24 hours, the soil is sprayed with the preparation of active compound such that the particular amount of active compound desired is applied per unit area. The concentration of the spray liquor is chosen so that the particular amount of active compound desired is applied in 1000 liters of water per hectare.
# (§5) After three weeks, the degree of damage to the plants is rated in % damage in comparison to the development of the untreated control.
# (§6) 0%=no effect (like untreated control)
# Veronica = test: Pre-emergence test/greenhouse, Veronica; settings: 504 h, 500 g of ai./ha, after three weeks, read-out: degree of damage, Veronica
# Experimental: as §1, §2, §3, §4, §5, §6
# Solanum [2] = test: Pre-emergence test/greenhouse, Solanum; settings: 500 g of ai./ha, after three weeks
# Experimental: as §1, §2, §3, §4, §5, §6
# cotton = test: Pre-emergence test/greenhouse, cotton; settings: 500 g of ai./ha, after three weeks
# Experimental: as §1, §2, §3, §4, §5, §6
# Datura [3] = test: Pre-emergence test/greenhouse, Datura; settings: 500 g of ai./ha, after three weeks
# Experimental: as §1, §2, §3, §4, §5, §6
# Digitaria = test: Pre-emergence test/greenhouse, Digitaria; settings: 500 g of ai./ha, after three weeks
# Experimental: as §1, §2, §3, §4, §5, §6
# Chenopodium = test: Pre-emergence test/greenhouse, Chenopodium; settings: 500 g of ai./ha, after three weeks
# Experimental: as §1, §2, §3, §4, §5, §6
# maize = test: Pre-emergence test/greenhouse, maize; settings: 500 g of ai./ha, after three weeks
# Experimental: as §1, §2, §3, §4, §5, §6
# wheat [4] = test: Pre-emergence test/greenhouse, wheat; settings: 500 g of ai./ha, after three weeks
# Experimental: as §1, §2, §3, §4, §5, §6
# Amaranthus = test: Pre-emergence test/greenhouse, Amaranthus; settings: 500 g of ai./ha, after three weeks
# Experimental: as §1, §2, §3, §4, §5, §6
# Setaria [5] = test: Pre-emergence test/greenhouse, Setaria; settings: 500 g of ai./ha, after three weeks
# Experimental: as §1, §2, §3, §4, §5, §6
# barley [6] = test: Pre-emergence test/greenhouse, barley; settings: 500 g of ai./ha, after three weeks
# Experimental: as §1, §2, §3, §4, §5, §6
# Viola [7] = test: Post-emergence test/greenhouse, Viola; settings: after three weeks
# Experimental: as §1, §2, §3
# (§7) Test plants of a height of 5-15 cm are sprayed with the preparation of active compound such that the particular amounts of active compound desired are applied per unit area. The concentration of the spray liquor is chosen so that the particular amounts of active compound desired are applied in 1000 l of water/ha.
# as §5, §6
# Ipomoea = test: Post-emergence test/greenhouse, Ipomoea; settings: after three weeks
# Experimental: as §1, §2, §3, §7, §5, §6
# [8] = system: crop plants, such as, for example, maize, barley and wheat; test: Post-emergence test, tolerance by crop plants; settings: result in words
# Experimental: as §1, §2, §3, §7, §5, §6
# Datura [9] = test: Post-emergence test/greenhouse, Datura; settings: after three weeks
# Experimental: as §1, §2, §3, §7, §5, §6
# weeds [10] = test: Post-emergence test, activity against weeds; settings: result in words
# Experimental: as §1, §2, §3, §7, §5, §6
# barley [11] = test: Post-emergence test/greenhouse, barley; settings: after three weeks
# Experimental: as §1, §2, §3, §7, §5, §6
# wheat [12] = test: Post-emergence test/greenhouse, wheat; settings: after three weeks
# Experimental: as §1, §2, §3, §7, §5, §6
# Solanum [13] = test: Post-emergence test/greenhouse, Solanum; settings: after three weeks
# Experimental: as §1, §2, §3, §7, §5, §6
# weeds [14] = test: Pre-emergence test, activity against weeds; settings: result in words
# Experimental: as §1, §2, §3, §4, §5, §6
# [15] = system: crop plants, such as, for example, cotton, maize, wheat and barley; test: Pre-emergence test, tolerance by crop plants; settings: result in words
# Experimental: as §1, §2, §3, §4, §5, §6
# Lolium = test: Pre-emergence test/greenhouse, Lolium; settings: 500 g of ai./ha, after three weeks
# Experimental: as §1, §2, §3, §4, §5, §6
# Cyperus = test: Pre-emergence test/greenhouse, Cyperus; settings: 500 g of ai./ha, after three weeks
# Experimental: as §1, §2, §3, §4, §5, §6
# Matricaria = test: Pre-emergence test/greenhouse, Matricaria; settings: 500 g of ai./ha, after three weeks
# Experimental: as §1, §2, §3, §4, §5, §6
# Setaria [16] = test: Post-emergence test/greenhouse, Setaria; settings: 500 g of ai./ha, after three weeks
# Experimental: as §1, §2, §3, §7, §5, §6
compound,measurement,setting,value
CCC(CCc1ccc(Br)s1)Nc1nc(N)nc(C(C)F)n1 (stereo not shown) [drawing 246],"degree of damage, Viola",Viola [1]; 500 g of ai./ha,100%
CCC(CCc1ccc(Br)s1)Nc1nc(N)nc(C(C)(C)F)n1 (stereo not shown) [drawing 247],"degree of damage, Viola",Viola [1]; 500 g of ai./ha,100%
CCC(CCc1sccc1Br)Nc1nc(NC(C)=O)nc(C(C)F)n1 (stereo not shown) [drawing 242],pest or weed control at 500 g/ha,Veronica,100%
same,"degree of damage, Solanum",Solanum [2],100%
CCC(CCc1sccc1Br)Nc1nc(N)nc(C(C)F)n1 (stereo not shown) [drawing 261],"degree of damage, cotton",cotton,0%
same,"degree of damage, Datura",Datura [3],100%
CCC(CCc1cc(Br)cs1)Nc1nc(NC(C)=O)nc(C(C)(C)F)n1 (stereo not shown) [drawing 239],pest or weed control at 500 g/ha,Veronica,100%
same,"degree of damage, Solanum",Solanum [2],100%
same,"degree of damage, Digitaria",Digitaria,100%
same,"degree of damage, Chenopodium",Chenopodium,100%
CCC(CCc1cc(C)sc1C)Nc1nc(N)nc(C(C)F)n1 (stereo not shown) [drawing 233],"degree of damage, maize",maize,0%
same,"degree of damage, wheat",wheat [4],0%
same,"degree of damage, Amaranthus",Amaranthus,100%
CCC(CCc1sccc1Br)Nc1nc(N)nc(C(C)(C)F)n1 (stereo not shown) [drawing 230],"degree of damage, Amaranthus",Amaranthus,100%
CCC(CCc1cc(Br)cs1)Nc1nc(NC(C)=O)nc(C(C)F)n1 (stereo not shown) [drawing 248],"degree of damage, Setaria",Setaria [5],95%
same,"degree of damage, Viola",Viola [1]; 500 g of ai./ha,100%
same,"degree of damage, barley",barley [6],0%
CCC(CCc1cc(Br)cs1)Nc1nc(N)nc(C(C)(C)F)n1 (racemic) [Example 2],"degree of damage, Viola",Viola [7]; 125 g of ai./ha,95%
same,"degree of damage, Ipomoea",Ipomoea; 125 g of ai./ha,95%
same,tolerance by crop plants,[8],tolerated well
same,"degree of damage, Datura",Datura [9]; 125 g of ai./ha,95%
same,activity against weeds,weeds [10],strong activity against weeds
same,"degree of damage, barley",barley [11]; 125 g of ai./ha,0%
same,"degree of damage, wheat",wheat [12]; 125 g of ai./ha,0%
same,"degree of damage, Solanum",Solanum [13]; 125 g of ai./ha,100%
CC(CCCc1cccs1)Nc1nc(N)nc(C(C)(C)F)n1 (stereo not shown) [drawing 245],"degree of damage, Viola",Viola [1]; 1000 g of ai./ha,100%
CCC(CCc1ccc(Br)s1)Nc1nc(N)nc(C(C)(C)F)n1 (racemic) [Example 5],activity against weeds,weeds [14],strong activity against weeds
same,"degree of damage, Viola",Viola [7]; 500 g of ai./ha,95%
same,"degree of damage, Ipomoea",Ipomoea; 500 g of ai./ha,95%
same,tolerance by crop plants,[8],tolerated well
same,tolerance by crop plants,[15],largely tolerated well
same,"degree of damage, Datura",Datura [9]; 500 g of ai./ha,100%
same,activity against weeds,weeds [10],strong activity against weeds
same,"degree of damage, barley",barley [11]; 500 g of ai./ha,0%
same,"degree of damage, wheat",wheat [12]; 500 g of ai./ha,0%
same,"degree of damage, Solanum",Solanum [13]; 500 g of ai./ha,100%
CCC(CCc1sccc1Br)Nc1nc(NC(C)=O)nc(C(C)F)n1 (stereo not shown) [drawing 262],"degree of damage, cotton",cotton,0%
CCC(CCc1cc(C)sc1C)Nc1nc(NC(C)=O)nc(C(C)(C)F)n1 (stereo not shown) [drawing 264],"degree of damage, Lolium",Lolium,90%
CCC(CCc1cc(C)sc1C)Nc1nc(N)nc(C(C)F)n1 (stereo not shown) [drawing 243],pest or weed control at 500 g/ha,Veronica,100%
same,"degree of damage, Solanum",Solanum [2],100%
same,"degree of damage, Digitaria",Digitaria,100%
CCC(CCc1ccc(Br)s1)Nc1nc(N)nc(C(C)(C)F)n1 (stereo not shown) [drawing 227],"degree of damage, maize",maize,0%
same,"degree of damage, wheat",wheat [4],0%
CCC(CCc1cc(C)sc1C)Nc1nc(N)nc(C(C)F)n1 (stereo not shown) [drawing 253],"degree of damage, Viola",Viola [1]; 500 g of ai./ha,100%
CCC(CCc1sccc1Br)Nc1nc(N)nc(C(C)(C)F)n1 (stereo not shown) [drawing 250],"degree of damage, Cyperus",Cyperus,100%
same,"degree of damage, Matricaria",Matricaria,100%
CCC(CCc1ccc(Br)s1)Nc1nc(N)nc(C(C)F)n1 (racemic) [Example 4],activity against weeds,weeds [14],strong activity against weeds
same,"degree of damage, Viola",Viola [7]; 500 g of ai./ha,100%
same,"degree of damage, Setaria",Setaria [16],80%
same,"degree of damage, Ipomoea",Ipomoea; 500 g of ai./ha,95%
same,tolerance by crop plants,[8],tolerated well
same,tolerance by crop plants,[15],largely tolerated well
same,"degree of damage, Datura",Datura [9]; 500 g of ai./ha,95%
same,activity against weeds,weeds [10],strong activity against weeds
same,"degree of damage, barley",barley [11]; 500 g of ai./ha,0%
same,"degree of damage, wheat",wheat [12]; 500 g of ai./ha,0%
same,"degree of damage, Solanum",Solanum [13]; 500 g of ai./ha,95%
CCC(CCc1sccc1Br)Nc1nc(N)nc(C(C)F)n1 (stereo not shown) [drawing 231],"degree of damage, Amaranthus",Amaranthus,100%
